The text below walks through data of patent US12139477B2, “Compounds, salts thereof and methods for treatment of diseases” (ACADIA PHARMACEUTICALS INC., priority 2017, dated 2024).

One experiment concerns the target hERG potassium channel (Homo sapiens, UniProt Q12809). In words: hERG manual patch clamp, HEK293 cells (CR-CLE). Here is the method: Each cell acted as its own control.
Temperature was measured using a thermistor probe in the recording chamber.

Experiment [1] has as its target T1, Nav1.5 sodium ion channel (alpha subunit) (Homo sapiens, UniProt Q14524).
T1 construct: host or cells: HEK293 cells
In words: NaV1.5 whole cell recordings, HEK293 (AVIVA; for ACP-201, ACP-203 and ACP-204). In kind it is cell-based. The note with it: manual patch clamp; step to 0 mV; AVIVA method for ACP-201, ACP-203, ACP-204; read-out: NaV 1.5 IC50. The procedure:
NaV1.5 methods (for ACP-201, ACP-203 and ACP-204): These experiments were carried out at AVIVA Biosciences Corporation, 6330 Nancy Ridge Drive, Suite 103, San Diego, CA 92121.
Cells: HEK293 cells transfected with Nav1.5 sodium ion channel (alpha subunit) were selected for this study. Cells were cultured in DMEM/F12 containing 10% FBS, 500 μg/mL G418 and 1% penicillin/streptomycin. Trypsin (0.05%) was utilized for cell harvesting.
External Solution: 90 mM NaCl; 50 mM TEA; 10 mM HEPES; 10 mM glucose; 4 mM KCl; 2 mM CaCl2); 305-315 mOsm; pH 7.4 (adjusted with 5M NaOH).
Internal Solution: 140 mM CsF; 10 mM NaCl; 1 mM MgCl2; 10 mM HEPES; 5 mM EGTA; 295-305 mOsm; pH 7.4 (adjusted with 1M NaOH).
Electrophysiology: All whole cell recordings were performed using PX 7000A (Axon Instruments) with AVIVA's […] technology. To achieve stable recordings, cells were voltage clamped at a holding potential 20 mV more negative than steady state half inactivation potential (Vh=V1/2−20 mV). V1/2 was determined by a pre-step from −130 mV to −40 MV for 1000 ms followed by a −10 mV step. V1/2 was determined independently for each cell to correct for both electrode potential and liquid junction potential offsets.
Test Article Handling and Dilutions: All test articles were prepared from 10 mM DMSO stock solutions. Solutions were mixed by sonication for 20 min, followed by vigorous vortexing. Prior to testing, compounds were diluted to test concentrations in glass vials using External Solution. Dilutions were prepared no longer than 20 min prior to use.
Electrophysiology Procedures: After achieving whole cell configuration, cells were monitored for 90 s to assess stability and then washed with External Solution for 66 s. for each cell achieving whole-cell access, an IV curve and steady state inactivation curve was measured. […] Whole cell parameters were monitored throughout the recoding procedure and corrected for any possible access resistance or input capacitance change (whole-cell compensation). […]
(In general: In patch-clamp work, channel activity is measured electrically.)

A further experiment concerns the target 5HT2A (Homo sapiens, UniProt P28223). Briefly: Receptor Selection and Amplification (R-SAT) functional assay. In kind it is cell-based. On the set-up: expressed in transfected cells; host or cells: NIH3T3 cells, pSI mammalian expression vector. The note with it: NIH3T3 cells; Ki from IC50 by Cheng and Prussoff; read-out: 5-HT2a (pKi) (R-SAT) (converted). From the text: Receptor Selection and Amplification (R-SAT) Assays. […] The IC50 determined in the RSAT assay was converted into a Ki value using the method of Cheng and Prussoff, Biochem Pharmacol., 1973 Dec. 1; 22(23):3099-108. pKi is the negative of the log(Ki).

Sequence of hERG potassium channel (Q12809 whole entry): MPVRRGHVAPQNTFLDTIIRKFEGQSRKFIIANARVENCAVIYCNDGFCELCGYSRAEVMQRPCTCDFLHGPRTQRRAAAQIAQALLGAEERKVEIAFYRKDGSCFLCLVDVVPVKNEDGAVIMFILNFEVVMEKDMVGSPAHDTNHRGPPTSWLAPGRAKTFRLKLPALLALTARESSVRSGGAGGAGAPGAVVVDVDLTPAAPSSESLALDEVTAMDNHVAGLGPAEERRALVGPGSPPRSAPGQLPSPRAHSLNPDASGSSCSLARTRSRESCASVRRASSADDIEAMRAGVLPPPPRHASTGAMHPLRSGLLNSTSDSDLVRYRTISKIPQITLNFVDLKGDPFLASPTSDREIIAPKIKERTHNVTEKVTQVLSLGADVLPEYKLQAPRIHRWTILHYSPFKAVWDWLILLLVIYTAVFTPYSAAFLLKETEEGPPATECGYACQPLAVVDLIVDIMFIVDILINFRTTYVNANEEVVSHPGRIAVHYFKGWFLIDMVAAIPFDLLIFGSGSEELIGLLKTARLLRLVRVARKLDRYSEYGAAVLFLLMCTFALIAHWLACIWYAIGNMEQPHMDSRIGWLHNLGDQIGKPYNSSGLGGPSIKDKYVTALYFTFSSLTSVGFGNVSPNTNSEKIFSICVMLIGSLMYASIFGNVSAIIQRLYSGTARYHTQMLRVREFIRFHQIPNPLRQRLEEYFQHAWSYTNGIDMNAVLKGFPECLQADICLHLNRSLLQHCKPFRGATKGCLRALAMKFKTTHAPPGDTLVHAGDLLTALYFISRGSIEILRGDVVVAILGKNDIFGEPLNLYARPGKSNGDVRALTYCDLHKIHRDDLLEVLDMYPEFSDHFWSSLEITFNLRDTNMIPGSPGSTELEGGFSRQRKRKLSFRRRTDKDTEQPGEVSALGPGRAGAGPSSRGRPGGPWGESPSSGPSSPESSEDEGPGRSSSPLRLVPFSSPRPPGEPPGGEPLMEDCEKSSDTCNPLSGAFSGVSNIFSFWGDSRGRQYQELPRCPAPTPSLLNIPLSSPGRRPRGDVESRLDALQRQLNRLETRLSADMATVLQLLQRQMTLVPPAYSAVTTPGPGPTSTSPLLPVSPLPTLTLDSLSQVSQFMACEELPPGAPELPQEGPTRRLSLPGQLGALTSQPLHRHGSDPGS
T1 sequence (Q14524 whole entry): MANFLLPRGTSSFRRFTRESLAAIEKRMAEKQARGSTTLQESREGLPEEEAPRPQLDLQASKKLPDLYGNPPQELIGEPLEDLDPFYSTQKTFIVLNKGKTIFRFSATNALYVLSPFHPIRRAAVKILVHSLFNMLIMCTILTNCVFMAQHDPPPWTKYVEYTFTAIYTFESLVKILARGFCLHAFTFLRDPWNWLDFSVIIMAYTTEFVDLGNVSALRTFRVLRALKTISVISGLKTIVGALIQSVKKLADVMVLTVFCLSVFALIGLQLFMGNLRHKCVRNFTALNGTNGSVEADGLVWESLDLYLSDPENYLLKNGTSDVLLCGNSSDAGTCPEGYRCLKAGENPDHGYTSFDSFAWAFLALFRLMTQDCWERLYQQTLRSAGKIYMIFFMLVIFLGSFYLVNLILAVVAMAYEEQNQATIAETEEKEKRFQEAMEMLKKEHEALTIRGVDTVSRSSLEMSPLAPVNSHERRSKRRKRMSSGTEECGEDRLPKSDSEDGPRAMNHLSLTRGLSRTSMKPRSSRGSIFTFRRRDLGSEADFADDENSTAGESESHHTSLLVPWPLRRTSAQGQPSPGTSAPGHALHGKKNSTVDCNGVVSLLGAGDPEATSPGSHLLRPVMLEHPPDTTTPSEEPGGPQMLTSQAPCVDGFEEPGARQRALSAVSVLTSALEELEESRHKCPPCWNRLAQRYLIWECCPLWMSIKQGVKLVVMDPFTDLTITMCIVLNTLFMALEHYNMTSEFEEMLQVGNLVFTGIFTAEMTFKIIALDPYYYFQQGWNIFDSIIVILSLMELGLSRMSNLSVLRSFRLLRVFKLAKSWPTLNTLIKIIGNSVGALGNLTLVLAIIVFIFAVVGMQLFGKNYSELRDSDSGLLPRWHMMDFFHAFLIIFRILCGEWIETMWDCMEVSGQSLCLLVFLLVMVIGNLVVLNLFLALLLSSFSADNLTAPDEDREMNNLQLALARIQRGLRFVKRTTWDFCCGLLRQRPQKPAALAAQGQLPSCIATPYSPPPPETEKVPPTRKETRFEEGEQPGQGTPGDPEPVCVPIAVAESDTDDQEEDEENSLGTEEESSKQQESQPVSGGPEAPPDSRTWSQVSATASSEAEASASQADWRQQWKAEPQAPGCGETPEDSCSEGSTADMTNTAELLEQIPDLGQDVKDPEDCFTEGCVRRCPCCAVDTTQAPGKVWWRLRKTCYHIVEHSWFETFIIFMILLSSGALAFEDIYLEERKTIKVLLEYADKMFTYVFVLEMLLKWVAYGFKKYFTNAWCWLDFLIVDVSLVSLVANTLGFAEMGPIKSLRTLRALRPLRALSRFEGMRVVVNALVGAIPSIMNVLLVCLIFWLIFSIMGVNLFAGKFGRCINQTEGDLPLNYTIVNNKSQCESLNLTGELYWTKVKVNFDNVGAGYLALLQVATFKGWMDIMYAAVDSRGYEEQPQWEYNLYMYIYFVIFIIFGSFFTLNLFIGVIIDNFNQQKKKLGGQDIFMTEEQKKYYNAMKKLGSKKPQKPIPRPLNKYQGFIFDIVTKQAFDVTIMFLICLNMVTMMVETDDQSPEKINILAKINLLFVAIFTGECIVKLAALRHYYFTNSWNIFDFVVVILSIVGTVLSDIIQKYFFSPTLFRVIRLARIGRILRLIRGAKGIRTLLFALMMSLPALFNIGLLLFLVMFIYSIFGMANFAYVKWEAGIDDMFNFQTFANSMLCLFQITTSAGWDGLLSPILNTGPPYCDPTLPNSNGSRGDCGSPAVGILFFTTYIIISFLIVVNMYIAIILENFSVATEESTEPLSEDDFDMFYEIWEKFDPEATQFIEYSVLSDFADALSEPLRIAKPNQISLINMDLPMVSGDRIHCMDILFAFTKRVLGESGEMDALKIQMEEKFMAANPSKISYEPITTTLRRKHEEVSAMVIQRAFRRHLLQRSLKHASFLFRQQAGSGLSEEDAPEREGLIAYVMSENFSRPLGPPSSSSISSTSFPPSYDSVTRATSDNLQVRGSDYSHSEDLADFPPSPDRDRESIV
Sequence of 5HT2A (P28223 whole entry): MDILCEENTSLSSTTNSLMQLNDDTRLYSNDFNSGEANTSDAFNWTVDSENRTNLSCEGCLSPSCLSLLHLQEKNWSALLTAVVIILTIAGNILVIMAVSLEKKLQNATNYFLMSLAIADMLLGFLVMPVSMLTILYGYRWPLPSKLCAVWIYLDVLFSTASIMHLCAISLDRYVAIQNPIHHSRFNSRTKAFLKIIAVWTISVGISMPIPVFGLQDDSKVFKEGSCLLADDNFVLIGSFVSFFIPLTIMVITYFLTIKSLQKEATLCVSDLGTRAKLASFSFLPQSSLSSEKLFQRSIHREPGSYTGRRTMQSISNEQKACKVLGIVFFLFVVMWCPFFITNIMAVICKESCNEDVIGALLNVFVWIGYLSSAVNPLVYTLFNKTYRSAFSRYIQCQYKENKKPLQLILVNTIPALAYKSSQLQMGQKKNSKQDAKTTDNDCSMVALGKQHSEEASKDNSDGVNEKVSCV

As usually defined, the IC50 is the concentration at which inhibition is half-maximal. With `CC(C)COc1ccc(CNC(=O)N(Cc2ccc(F)cc2F)C2CCN(C)CC2)cc1` [Example 3, 1-[(2,4-difluorophenyl)methyl]-1-(1-methylpiperidin-4-yl)-3-{[4-(2-methylpropoxy)phenyl]methyl}urea], the IC50 against hERG potassium channel came to 500 nM; in experiment [1], 4200 nM. Besides, at 5HT2A, the Ki is 1.26 nM.

`CN1CCC(N(Cc2ccc(F)cc2F)C(=O)NCc2ccc(OC3CC3)cc2)CC1` [Example 17, 3-[(4-cyclopropoxyphenyl)methyl]-1-[(2,4-difluorophenyl)methyl]-1-(1-methylpiperidin-4-yl)urea]: the IC50 was 1800 nM against hERG potassium channel and > 10000 nM in experiment [1]. In addition, at 5HT2A, the Ki is 0.398 nM.

As to `CC(C)Oc1ccc(CNC(=O)N(Cc2ccc(F)cc2F)C2CCN(C)CC2)cc1` [Example 5, 1-[(2,4-difluorophenyl)methyl]-1-(1-methylpiperidin-4-yl)-3-{[4-(propan-2-yloxy)phenyl]methyl}urea], the IC50 is 1800 nM against hERG potassium channel and > 10000 nM in experiment [1]. Further, the Ki on 5HT2A is 1 nM.
